Test results: article PMC9061999, “Application of the Adverse Outcome Pathway Concept to In Vitro Nephrotoxicity Assessment: Kidney Injury due to Receptor-Mediated Endocytosis and Lysosomal Overload as a Case Study” (Frontiers in Toxicology, 2022)
Read-outs that look alike come from different tables or passages of the source.

Key:
RPTEC/TERT1 cells = assay: LC-MS/MS analysis of intracellular concentration; type: in vitro ADME, human; settings: for Intracellular concentration after recovery compared to the 24 h time-point: RPTEC/TERT1, 34 µM for 24 h, then 24 h in fresh medium; for Time course of intracellular concentration: within the 24 h treatment period (1-2 min, 1, 3, 6, 24 h), n = 3
Description: (§1) NRK-52E and RPTEC/TERT1 cells were seeded in 12-well plates (120,000 cells per well) and were allowed to grow for 48 h (NRK-52E) or 10 d (RPTEC/TERT1) until they reached 100% confluence. After cells achieved 100% confluence, the supernatant was aspirated, and the cells were washed twice with 1 x PBS. Cells were treated with polymyxins at a final concentration of 34 µM for 24 h. Samples were taken at five different treatment time points (1–2 min, 1, 3, 6, and 24 h). In addition, a recovery sample was taken 24 h after the end of the 24 h treatment period. To this end, the supernatant was aspirated after 24 h treatment and the cells were washed three times with 1 x PBS to remove polymyxin B or colistin residues. Fresh growth medium was added, and the cells were incubated for another 24 h. At the end of each experiment, the cells were washed 3 times with 1 x PBS and trypsinized by adding 200 µL of trypsin. Detached cells were washed with 1,000 µL 1 x PBS and the cells were transferred to LoBind™ tubes (Eppendorf). Cell count was determined using a Fuchs-Rosenthal counting chamber (Hartenstein). Cells were centrifuged for 5 min at 4°C at 10.000 rpm and the supernatant was aspirated. Cells were resuspended in 1,000 µL 1 x PBS and centrifuged for 5 min at 4°C at 10.000 rpm. After centrifugation, the supernatant was aspirated, and the cell pellet was resuspended in 250 µL ammonium acetate buffer (10 mM) and 250 µL of 30% methanol with 1% acetic acid containing polymyxin B respectively colistin as an internal standard. Cells were sonicated for 10 min and centrifuged for 5 min at 4°C at 14.000 rpm. The supernatant was transferred quantitatively into new LoBind™ tubes (Eppendorf) and dried in a centrifugal vacuum concentrator for 2–3 h. To measure compound plastic binding, the empty 12 well plates were washed with 1.5 ml acetonitrile on an orbital shaker for 2 h and supernatant was collected. For sample purification via solid phase extraction, SPE cartridges Strata-X 33 µm polymeric reversed phase, 10 mg/1 ml (Phenomenex) were used. In the conditioning step the cartridges were rinsed with 200 µL methanol (100%) and subsequently with 200 µL ddH2O to activate the sorbent bed. The dried samples were dissolved in 200 µL 1% acetic acid and transferred onto the SPE cartridge. The SPE cartridge were rinsed once with 200 µL 1% acetic acid. Impurities were removed by rinsing the cartridge once with 200 µL 10% methanol. A fresh LoBind™ tube (Eppendorf) was placed under the SPE cartridge to eluate the samples by rinsing twice with 200 µL 90% methanol containing 1% acetic acid. The samples were dried in a centrifugal vacuum concentrator for 2–3 h. All samples were stored at −20°C until LC-MS/MS analysis.
A triple quadrupole mass spectrometer equipped with a Turbo-Ion® Spray source (QTrap API 2000; AB Sciex Instruments) was used for analyses. The mass spectrometer was coupled to an Agilent 1100 HPLC system consisting of a binary pump system, a vacuum degasser and an autosampler (Agilent 1,100). […]

NRK-52E cells = assay: LC-MS/MS analysis of intracellular concentration; type: in vitro ADME, rat; settings: for Intracellular accumulation in NRK-52E compared to RPTEC-TERT1 cells: 24 h; for Intracellular concentration after recovery compared to the 24 h time-point: 34 µM for 24 h, then 24 h in fresh medium; for Time course of intracellular concentration: within the 24 h treatment period (1-2 min, 1, 3, 6, 24 h), n = 3
Description: as §1
A triple quadrupole mass spectrometer equipped with a Turbo-Ion® Spray source (QTrap API 2000; AB Sciex Instruments) was used for analyses. The mass spectrometer was coupled to an Agilent 1100 HPLC system consisting of a binary pump system, a vacuum degasser and an autosampler (Agilent 1,100). Chromatographic separation was performed at 40°C with a column oven (Knauer) on a Synergi Hydro-RP column (2 mm × 150 mm, 4 μm, 80 Å; Phenomenex) coupled to a precolumn (SecurityGuard™ Cartridges, AQ C18 4 × 2.0 mm) using a binary step gradient at a flow rate of 0.2 ml/min with the following gradient: 0 min 100% A, 15 min 0% A, 20 min 0% A, 21 min 100% A, and 30 min 100% A. Mobile phase consisted of 3% acetonitrile containing 1% acetic acid and (solvent A) and 97% acetonitrile containing 1% acetic acid (solvent B). The injection volume was set to 10 µL and the total analysis time was 30 min. Following chromatographic separation, multiple ion monitoring was used to detect the triply charged, twice charged, and single charged ions of polymyxins (Table 1). […]

[1] = cited from earlier work
Source text: Plasma/Serum Treatment KE BMC10 [µM] Concentration MOE [µM] RPTEC/TERT1 / Human KE1 4.2 1.0 - 7.4 Polymyxin B KE2 6.8 1.7 - 11.9 0.57 – 4.1 (1,2 ...

Substance | Intracellular concentration compared to polymyxin B (RPTEC/TERT1 cells; RPTEC/TERT1, 34 µM) | Intracellular concentration after recovery compared to the 24 h time-point (RPTEC/TERT1 cells) | Time course of intracellular concentration (RPTEC/TERT1 cells; RPTEC/TERT1, 34 µM) | Intracellular accumulation in NRK-52E compared to RPTEC-TERT1 cells (NRK-52E cells; 34 µM) | Intracellular concentration compared to polymyxin B (NRK-52E cells; NRK-52E, 34 µM) | Intracellular concentration after recovery compared to the 24 h time-point (NRK-52E cells; NRK-52E) | Time course of intracellular concentration (NRK-52E cells; NRK-52E, 34 µM) | Plasma/Serum Concentration ([1]; human, cmax or css at therapeutic or known nephrotoxic doses, ref 3,4 (Tran et al., 2016; Sorli et al., 2017)) [µM] | Plasma/Serum Concentration ([1]; human, cmax or css at therapeutic or known nephrotoxic doses, ref 1,2 (Sandri et al., 2013; Manchandani et al., 2016)) [µM] | Plasma/Serum Concentration ([1]; rat, cmax or css at human equivalent or nephrotoxic doses, ref 5 (Nilsson et al., 2015)) [µM]
Colistin | lower intracellular concentrations | declined during the 24 h off-dose recovery period | continuous rise in the intracellular concentration | significantly lower in NRK-52E cells | lower intracellular concentrations | declined during the 24 h off-dose recovery period | continuous rise in the intracellular concentration | 0.42 to 8.1 |  | 
Polymyxin B |  | declined during the 24 h off-dose recovery period | continuous rise in the intracellular concentration | significantly lower in NRK-52E cells |  | declined during the 24 h off-dose recovery period | continuous rise in the intracellular concentration |  | 0.57 to 4.1 | 7.0 to 7.1
